In PMC12281424, “A Rac-specific competitive inhibitor of guanine nucleotide binding reduces metastasis in triple-negative breast cancer” (Cell Reports Medicine, 2025):

What was measured:
[1] = biological target: PI3K (p110b/p85a)(m) (Mus musculus, UniProt Q8BTI9); experiment: Kinase Profiler; type: biochemical
Description: (§1) Blood cell counts, kinase profiler, safety screen, bacterial cytotoxicity, Ames, micronucleus assays were performed by the company Eurofins (France). The kinase profiler was performed by the company Eurofins (Discovery, Panlab and Cerep).

[2] = biological target: CHK2(R145W)(h) (Homo sapiens, UniProt O96017, R145W); experiment: Kinase Profiler; type: biochemical
Description: (§2) The kinase profiler was performed by the company Eurofins (Discovery, Panlab and Cerep).

[3] = biological target: STK32A(h) (Homo sapiens, UniProt Q8WU08); experiment: Kinase Profiler; type: biochemical
Description: as §2

[4] = biological target: DNA-PK(h) (Homo sapiens, UniProt P78527); experiment: Kinase Profiler; type: biochemical
Description: as §2

[5] = biological target: Transporter, Serotonin (5- Hydroxytryptamine) (SERT) (Homo sapiens, UniProt P31645); experiment: Safety screen; type: binding
Description: (§3) Blood cell counts, kinase profiler, safety screen, bacterial cytotoxicity, Ames, micronucleus assays were performed by the company Eurofins (France).

[6] = biological target: PDHK2(h) (Homo sapiens, UniProt Q15119); experiment: Kinase Profiler; type: biochemical
Description: as §1

[7] = biological target: NEK1(h) (Homo sapiens, UniProt Q96PY6); experiment: Kinase Profiler; type: biochemical
Description: as §2

[8] = biological target: DMPK(h) (Homo sapiens, UniProt Q09013); experiment: Kinase Profiler; type: biochemical
Description: as §1

[9] = biological target: ALK6(h) (Homo sapiens, UniProt O00238); experiment: Kinase Profiler; type: biochemical
Description: as §2

[10] = biological target: FAK(h) (Homo sapiens, UniProt Q05397); experiment: Kinase Profiler; type: biochemical
Description: as §2

[11] = biological target: Serotonin (5-Hydroxytryptamine) 5-HT3 (Homo sapiens, UniProt P46098); experiment: Safety screen; type: binding
Description: as §3

[12] = biological target: Cholecystokinin CCK1 (CCKA) (Homo sapiens, UniProt P32238); experiment: Safety screen; type: binding
Description: as §3

[13] = biological target: SNRK(h) (Homo sapiens, UniProt Q9NRH2); experiment: Kinase Profiler; type: biochemical
Description: as §2

[14] = biological target: SIK2(h) (Homo sapiens, UniProt Q9H0K1); experiment: Kinase Profiler; type: biochemical
Description: as §2

[15] = biological target: Dopamine D1 (Homo sapiens, UniProt P21728); experiment: Safety screen; type: binding
Chain of Dopamine D1 (P21728 whole entry): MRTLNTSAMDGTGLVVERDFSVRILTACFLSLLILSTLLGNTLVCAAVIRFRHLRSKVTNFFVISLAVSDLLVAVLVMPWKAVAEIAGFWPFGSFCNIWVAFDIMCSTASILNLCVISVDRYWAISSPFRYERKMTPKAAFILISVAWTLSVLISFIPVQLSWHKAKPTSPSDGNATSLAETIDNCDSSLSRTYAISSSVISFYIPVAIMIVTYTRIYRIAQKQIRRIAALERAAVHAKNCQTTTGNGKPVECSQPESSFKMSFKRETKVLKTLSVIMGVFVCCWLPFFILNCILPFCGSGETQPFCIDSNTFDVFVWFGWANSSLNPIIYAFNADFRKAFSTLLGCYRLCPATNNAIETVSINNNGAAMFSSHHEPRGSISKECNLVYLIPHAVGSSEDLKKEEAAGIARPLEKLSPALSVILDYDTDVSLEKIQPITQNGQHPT
Description: as §3

[16] = biological target: LATS2(h) (Homo sapiens, UniProt Q9NRM7); experiment: Kinase Profiler; type: biochemical
Description: as §2

[17] = biological target: Abl (Q252H) (h) (Homo sapiens, UniProt P00519, Q252H); experiment: Kinase Profiler; type: biochemical
Description: as §2

[18] = biological target: TLK2(h) (Homo sapiens, UniProt Q86UE8); experiment: Kinase Profiler; type: biochemical
Chain of TLK2(h) (Q86UE8 whole entry): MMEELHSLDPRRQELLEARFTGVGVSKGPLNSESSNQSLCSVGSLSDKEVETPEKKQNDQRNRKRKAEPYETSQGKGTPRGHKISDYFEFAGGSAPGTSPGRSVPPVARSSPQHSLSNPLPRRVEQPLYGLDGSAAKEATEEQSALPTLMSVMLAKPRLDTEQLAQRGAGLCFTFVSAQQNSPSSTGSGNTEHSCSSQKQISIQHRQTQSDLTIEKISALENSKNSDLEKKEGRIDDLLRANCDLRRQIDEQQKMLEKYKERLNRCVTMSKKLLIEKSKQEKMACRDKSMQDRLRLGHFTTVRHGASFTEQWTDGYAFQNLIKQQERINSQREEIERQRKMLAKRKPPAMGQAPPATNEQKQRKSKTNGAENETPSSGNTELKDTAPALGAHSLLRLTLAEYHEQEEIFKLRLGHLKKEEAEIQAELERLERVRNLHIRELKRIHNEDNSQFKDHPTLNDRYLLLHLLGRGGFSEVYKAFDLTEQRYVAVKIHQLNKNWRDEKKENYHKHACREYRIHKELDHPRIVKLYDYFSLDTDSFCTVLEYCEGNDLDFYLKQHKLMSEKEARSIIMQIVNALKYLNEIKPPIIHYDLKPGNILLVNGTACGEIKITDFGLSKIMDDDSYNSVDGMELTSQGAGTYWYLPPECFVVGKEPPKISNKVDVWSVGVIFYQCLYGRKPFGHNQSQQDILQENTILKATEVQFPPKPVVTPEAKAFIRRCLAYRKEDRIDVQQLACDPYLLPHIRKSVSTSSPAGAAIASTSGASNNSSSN
Description: as §2

[19] = biological target: PDGFRα(h) (Homo sapiens, UniProt P16234); experiment: Kinase Profiler; type: biochemical
Description: as §2

[20] = system: GABAA, Chloride Channel, TBOB; experiment: Safety screen; type: binding, rat
Description: as §3

[21] = biological target: Serotonin (5-Hydroxytryptamine) 5-HT2B (Homo sapiens, UniProt P41595); experiment: Safety screen; type: binding
Description: as §3

[22] = biological target: JNK1α1(h) (Homo sapiens, UniProt P45983); experiment: Kinase Profiler; type: biochemical
Description: as §2

[23] = biological target: DAPK1(h) (Homo sapiens, UniProt P53355); experiment: Kinase Profiler; type: biochemical
Description: as §2

[24] = biological target: Adrenergic α1B (Rattus norvegicus, UniProt P15823); experiment: Safety screen; type: binding
Chain of Adrenergic α1B (P15823 whole entry): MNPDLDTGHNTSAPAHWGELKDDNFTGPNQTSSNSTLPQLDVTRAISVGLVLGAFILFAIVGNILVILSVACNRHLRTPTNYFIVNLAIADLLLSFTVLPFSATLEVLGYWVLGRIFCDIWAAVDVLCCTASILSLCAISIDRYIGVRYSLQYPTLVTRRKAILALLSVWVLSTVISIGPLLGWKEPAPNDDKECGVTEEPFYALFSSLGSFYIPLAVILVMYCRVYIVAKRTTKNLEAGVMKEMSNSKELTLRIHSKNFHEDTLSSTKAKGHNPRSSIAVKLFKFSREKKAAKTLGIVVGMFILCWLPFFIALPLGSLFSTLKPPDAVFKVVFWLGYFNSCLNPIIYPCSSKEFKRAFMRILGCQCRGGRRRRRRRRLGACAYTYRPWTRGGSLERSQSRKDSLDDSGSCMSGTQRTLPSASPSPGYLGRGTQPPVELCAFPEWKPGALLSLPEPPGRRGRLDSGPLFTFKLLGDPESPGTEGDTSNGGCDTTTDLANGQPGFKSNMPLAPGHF
Description: as §3

[25] = biological target: PRAK(h) (Homo sapiens, UniProt Q8IW41); experiment: Kinase Profiler; type: biochemical
Chain of PRAK(h) (Q8IW41 whole entry): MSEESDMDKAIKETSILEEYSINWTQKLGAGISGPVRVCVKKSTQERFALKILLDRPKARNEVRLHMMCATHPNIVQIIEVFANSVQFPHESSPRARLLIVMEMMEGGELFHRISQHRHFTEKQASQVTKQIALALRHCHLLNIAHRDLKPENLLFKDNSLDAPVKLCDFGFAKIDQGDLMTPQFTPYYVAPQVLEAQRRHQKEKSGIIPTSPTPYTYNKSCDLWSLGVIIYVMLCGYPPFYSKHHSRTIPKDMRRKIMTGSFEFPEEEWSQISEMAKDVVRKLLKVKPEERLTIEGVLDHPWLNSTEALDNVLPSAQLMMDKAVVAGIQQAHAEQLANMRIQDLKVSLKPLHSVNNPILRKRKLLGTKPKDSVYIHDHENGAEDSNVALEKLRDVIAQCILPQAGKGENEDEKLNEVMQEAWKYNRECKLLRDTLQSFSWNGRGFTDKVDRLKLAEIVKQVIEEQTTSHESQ
Description: as §1

[26] = biological target: ErbB4(h) (Homo sapiens, UniProt Q15303); experiment: Kinase Profiler; type: biochemical
Description: as §2

[27] = biological target: MAP4K5(h) (Homo sapiens, UniProt Q9Y4K4); experiment: Kinase Profiler; type: biochemical
Description: as §2

[28] = biological target: Bradykinin B2 (Homo sapiens, UniProt P30411); experiment: Safety screen; type: binding
Description: as §1

[29] = biological target: Adenosine A2A (Homo sapiens, UniProt P29274); experiment: Safety screen; type: binding
Description: as §2

[30] = biological target: CDKL1(h) (Homo sapiens, UniProt Q00532); experiment: Kinase Profiler; type: biochemical
Description: as §2

[31] = biological target: Rsk1(r) (Rattus norvegicus, UniProt Q63531); experiment: Kinase Profiler; type: biochemical
Chain of Rsk1(r) (Q63531 whole entry): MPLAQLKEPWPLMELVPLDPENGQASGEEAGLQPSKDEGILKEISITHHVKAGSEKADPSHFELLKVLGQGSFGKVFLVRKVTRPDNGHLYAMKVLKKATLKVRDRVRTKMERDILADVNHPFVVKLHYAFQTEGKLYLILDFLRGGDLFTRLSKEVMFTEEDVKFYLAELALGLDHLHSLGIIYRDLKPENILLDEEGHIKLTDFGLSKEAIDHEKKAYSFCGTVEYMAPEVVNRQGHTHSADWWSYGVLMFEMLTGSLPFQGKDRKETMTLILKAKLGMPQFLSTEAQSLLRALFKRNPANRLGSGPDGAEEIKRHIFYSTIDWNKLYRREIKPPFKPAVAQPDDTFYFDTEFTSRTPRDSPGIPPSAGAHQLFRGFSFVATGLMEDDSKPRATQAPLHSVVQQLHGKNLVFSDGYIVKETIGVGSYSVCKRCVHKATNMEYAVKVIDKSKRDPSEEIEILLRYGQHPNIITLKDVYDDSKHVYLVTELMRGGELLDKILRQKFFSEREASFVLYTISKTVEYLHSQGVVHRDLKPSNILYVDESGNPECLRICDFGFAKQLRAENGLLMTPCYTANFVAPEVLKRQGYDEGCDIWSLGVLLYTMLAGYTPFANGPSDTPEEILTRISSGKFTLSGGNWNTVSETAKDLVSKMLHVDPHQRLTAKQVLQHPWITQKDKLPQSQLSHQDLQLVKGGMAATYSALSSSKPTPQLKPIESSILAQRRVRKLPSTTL
Description: as §2

[32] = biological target: JAK3(h) (Homo sapiens, UniProt P52333); experiment: Kinase Profiler; type: biochemical
Chain of JAK3(h) (P52333 whole entry): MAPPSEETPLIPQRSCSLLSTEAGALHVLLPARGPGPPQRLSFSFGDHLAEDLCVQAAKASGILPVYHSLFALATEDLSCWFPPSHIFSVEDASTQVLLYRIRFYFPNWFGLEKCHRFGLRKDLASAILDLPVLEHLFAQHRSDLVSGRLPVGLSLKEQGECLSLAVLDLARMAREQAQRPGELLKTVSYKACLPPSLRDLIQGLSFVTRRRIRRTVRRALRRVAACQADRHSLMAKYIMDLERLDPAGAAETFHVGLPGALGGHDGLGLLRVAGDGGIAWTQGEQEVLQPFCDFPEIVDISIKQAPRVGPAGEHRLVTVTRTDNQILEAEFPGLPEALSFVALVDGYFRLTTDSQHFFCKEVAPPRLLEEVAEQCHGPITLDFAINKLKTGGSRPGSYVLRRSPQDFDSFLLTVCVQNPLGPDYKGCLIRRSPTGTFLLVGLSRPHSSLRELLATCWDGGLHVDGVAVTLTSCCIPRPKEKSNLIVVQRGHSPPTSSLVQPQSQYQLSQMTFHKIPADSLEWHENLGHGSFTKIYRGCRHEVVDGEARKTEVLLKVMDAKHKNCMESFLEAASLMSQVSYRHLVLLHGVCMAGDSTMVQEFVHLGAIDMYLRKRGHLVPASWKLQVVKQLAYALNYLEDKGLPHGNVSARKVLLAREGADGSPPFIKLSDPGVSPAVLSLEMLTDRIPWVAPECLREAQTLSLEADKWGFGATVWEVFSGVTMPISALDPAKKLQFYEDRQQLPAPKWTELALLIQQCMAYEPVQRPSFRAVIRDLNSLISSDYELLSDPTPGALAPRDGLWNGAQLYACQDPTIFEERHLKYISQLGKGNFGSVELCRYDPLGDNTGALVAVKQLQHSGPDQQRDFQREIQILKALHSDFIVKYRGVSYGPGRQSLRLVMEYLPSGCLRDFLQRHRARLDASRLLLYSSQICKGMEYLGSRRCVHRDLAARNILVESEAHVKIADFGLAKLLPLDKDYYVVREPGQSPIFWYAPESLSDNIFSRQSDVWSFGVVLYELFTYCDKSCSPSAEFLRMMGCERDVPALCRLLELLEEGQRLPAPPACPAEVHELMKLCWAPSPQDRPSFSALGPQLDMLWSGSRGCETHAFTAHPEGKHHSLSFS
Description: as §2

[33] = biological target: SGK(h) (Homo sapiens, UniProt O00141); experiment: Kinase Profiler; type: biochemical
Description: as §2

[34] = biological target: SLK(h) (Homo sapiens, UniProt Q9H2G2); experiment: Kinase Profiler; type: biochemical
Description: as §2

[35] = biological target: VRK1(h) (Homo sapiens, UniProt Q99986); experiment: Kinase Profiler; type: biochemical
Description: as §2

[36] = biological target: WNK1(h) (Homo sapiens, UniProt Q9H4A3); experiment: Kinase Profiler; type: biochemical
Description: as §2

[37] = biological target: TSSK2(h) (Homo sapiens, UniProt Q96PF2); experiment: Kinase Profiler; type: biochemical
Chain of TSSK2(h) (Q96PF2 whole entry): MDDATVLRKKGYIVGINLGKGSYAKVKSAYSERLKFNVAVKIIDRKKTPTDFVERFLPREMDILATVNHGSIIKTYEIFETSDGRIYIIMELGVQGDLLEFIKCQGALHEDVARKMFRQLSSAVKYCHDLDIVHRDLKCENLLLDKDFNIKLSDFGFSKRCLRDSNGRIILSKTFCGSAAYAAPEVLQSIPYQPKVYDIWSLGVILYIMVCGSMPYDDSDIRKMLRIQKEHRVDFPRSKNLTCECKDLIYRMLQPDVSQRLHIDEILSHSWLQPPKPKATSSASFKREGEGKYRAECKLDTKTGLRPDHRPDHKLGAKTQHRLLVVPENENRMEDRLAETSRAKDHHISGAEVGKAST
Description: as §2

Chain of CHK2(R145W)(h) (O96017 whole entry R145W): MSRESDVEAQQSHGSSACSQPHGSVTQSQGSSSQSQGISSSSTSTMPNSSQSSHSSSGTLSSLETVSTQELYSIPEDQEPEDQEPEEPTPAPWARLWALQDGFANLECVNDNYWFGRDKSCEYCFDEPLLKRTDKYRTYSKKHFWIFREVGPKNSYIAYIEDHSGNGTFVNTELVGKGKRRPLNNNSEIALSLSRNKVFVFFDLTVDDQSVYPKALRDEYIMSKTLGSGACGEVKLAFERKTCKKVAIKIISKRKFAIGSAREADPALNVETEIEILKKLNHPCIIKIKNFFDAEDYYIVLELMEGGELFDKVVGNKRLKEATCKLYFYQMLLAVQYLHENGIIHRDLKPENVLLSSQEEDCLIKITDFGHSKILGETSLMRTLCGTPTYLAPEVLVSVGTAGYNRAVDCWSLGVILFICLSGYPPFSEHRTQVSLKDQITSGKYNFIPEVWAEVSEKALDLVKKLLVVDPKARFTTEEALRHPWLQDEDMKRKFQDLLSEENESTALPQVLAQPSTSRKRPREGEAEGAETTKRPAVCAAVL

**Q.** With `COc1ccc(OC)c(NS(=O)(=O)c2ccc(NC(=O)CCSc3ccc(C)cc3)cc2)c1` [Compound A41] as the compound, how does the “Activity(%)” value [1] read?
**A.** 101%

**Q.** And the “Activity(%)” value [2]?
**A.** 92%

**Q.** What about the “Activity(%)” value [3] of the same compound?
**A.** 100%

**Q.** And the “Activity(%)” value [4]?
**A.** 122%

**Q.** What about the “% inh.” value [5] of the same compound?
**A.** -3%

**Q.** What about the “Activity(%)” value [6] of the same compound?
**A.** 96%

**Q.** What about the “Activity(%)” value [7] of the same compound?
**A.** 104%

**Q.** And the “Activity(%)” value [8]?
**A.** 98%

**Q.** And the “Activity(%)” value [9]?
**A.** 104%

**Q.** And the “Activity(%)” value [10]?
**A.** 111%

**Q.** And the “% inh.” value [11]?
**A.** -2%

**Q.** And the “% inh.” value [12]?
**A.** 31%

**Q.** And the “Activity(%)” value [13]?
**A.** 123%

**Q.** What about the “Activity(%)” value [14] of the same compound?
**A.** 90%

**Q.** What about the “% inh.” value [15] of the same compound?
**A.** 17%

**Q.** What about the “Activity(%)” value [16] of the same compound?
**A.** 110%

**Q.** What about the “Activity(%)” value [17] of the same compound?
**A.** 105%

**Q.** What about the “Activity(%)” value [18] of the same compound?
**A.** 101%

**Q.** What about the “Activity(%)” value [19] of the same compound?
**A.** 92%

**Q.** And the “% inh.” value [20]?
**A.** 45%

**Q.** And the “% inh.” value [21]?
**A.** 90%

**Q.** What about the “Activity(%)” value [22] of the same compound?
**A.** 94%

**Q.** And the “Activity(%)” value [23]?
**A.** 117%

**Q.** What about the “% inh.” value [24] of the same compound?
**A.** 41%

**Q.** And the “Activity(%)” value [25]?
**A.** 88%

**Q.** What about the “Activity(%)” value [26] of the same compound?
**A.** 108%

**Q.** And the “Activity(%)” value [27]?
**A.** 102%

**Q.** What about the “% inh.” value [28] of the same compound?
**A.** 1%

**Q.** And the “% inh.” value [29]?
**A.** 16%

**Q.** And the “Activity(%)” value [30]?
**A.** 105%

**Q.** And the “Activity(%)” value [31]?
**A.** 128%

**Q.** What about the “Activity(%)” value [32] of the same compound?
**A.** 106%

**Q.** And the “Activity(%)” value [33]?
**A.** 116%

**Q.** What about the “Activity(%)” value [34] of the same compound?
**A.** 127%

**Q.** And the “Activity(%)” value [35]?
**A.** 103%

**Q.** What about the “Activity(%)” value [36] of the same compound?
**A.** 96%

**Q.** What about the “Activity(%)” value [37] of the same compound?
**A.** 111%
